These results are taken from patent publication US20180022819A1, “COMPOSITIONS AND METHODS FOR COMBINATION THERAPY WITH PROSTATE-SPECIFIC MEMBRANE ANTIGEN BINDING PROTEINS” (APTEVO RESEARCH AND DEVELOPMENT LLC, priority 2015, published 2018).

The subject of assay [1] is LNCaP cells. The assay can be described thus: Effect of enzalutamide on redirected T-cell cytotoxicity in LNCaP cells expressing GFP (Example 1). Particulars: enzalutamide alone, […] nM in 0.2% DMSO, no T-cells, 4 days. The assay is classed as cell-based, human. The procedure:
A titration of the anti-PSMA bispecific molecule TSC249 (protein sequence of SEQ ID NO: 78 in Table 3) was added to all sets of LNCaP cells in the amounts shown on the x-axis. T-cells and DMSO were added to the first set of LNCaP cells (leftmost set of bars). […] No T-cells and DMSO were added to the third set of LNCaP cells (set of bars second from the right). […] LNCaP cell growth (number of live cells) was measured by overall fluorescence and expressed as a fraction of live cells relative to the cells untreated with TSC249 on the y-axis.
LNCaP cells expressing GFP were cultured with donor T-cells at a 3:1 ratio of T-cells to LNCaP target cells for 4 days. […] DMSO alone was added to other samples. A titration of the anti-PSMA bispecific molecule TSC249 (protein sequence of SEQ ID NO: 78 in Table 3) was added to the cell cultures. LNCaP cell growth (number of live cells) was monitored by overall fluorescence.

Assay [2] has as its system 22Rv1 cells. The assay can be described thus: Flow cytometry: effect of prolonged enzalutamide treatment on PSMA expression level of 22Rv1 cells (Example 4). The class given is cell-based, human. Particulars: 10 μM enzalutamide. The source says:
Mean fluorescence intensity (MFI) of bound molecules on live cells is shown on the y-axis. Concentration (nM) of the anti-PSMA monoclonal antibody 107-1A4 labeled with FITC is shown on the x-axis.
22Rv1 cells (PSMA+ at low level) were obtained from ATCC (Manassas, Va.) and cultured according to the ATCC protocol in RPMI-1640 media plus 10% FBS. […] All four cultures were harvested, stained for PSMA with FITC-labeled anti-PSMA monoclonal antibody 107-1A4 (Acris), and PSMA expression assayed by standard flow cytometry procedures. 22Rv1 cells were harvested with trypsin, and placed into FACS buffer (PBS+0.5% BSA [Equitech]+2 mM EDTA [Life Technologies]) at 1×10e6 per ml. FITC-107-1A4 was prepared at 36 nM in FACS buffer, and serially diluted 1:3, before adding 50 μl to 2×10e5 22Rv1 cells which had been pelleted in a 96 well plate. After 30 minute incubation on ice, cells were washed 3 times in FACS buffer, resuspended in FACS buffer, and data acquired on a BD LSRII flow cytometer. The sample files were analyzed using FlowJo software; the median fluorescence intensity (MFI) of the live population of 22Rv1 cells in each well was calculated after gating on live cells (forward vs side scatter). Median fluorescence intensities were fit to a 4-parameter logistic curve and graphed as concentration vs. MFI using GraphPad PRISM® software.

The subject of assay [3] is 22Rv1 cells. Nature of the assay: Chromium-51 release assay of redirected T-cell cytotoxicity against 22Rv1 cells (Example 5). Particulars: 22Rv1 cells resistant to enzalutamide, 10 μM enzalutamide pre-treatment. The assay is classed as cell-based, human. The procedure:
FIG. 3 (top panel) is a graph showing the results of a chromium-51 release assay measuring the effectiveness of the anti-PSMA bispecific molecule TSC249 at inducing redirected T-cell cytotoxicity in 4 hours against enzalutamide-treated and untreated prostate cancer 22Rv1 cells. Percent specific lysis relative to a total lysis control is shown on the y-axis. Concentration (pM) of the anti-PSMA bispecific molecule TSC249 is shown on the x-axis.
To compare the sensitivity of enzalutamide-treated and untreated 22Rv1 prostate cancer cells to target-dependent T-cell cytotoxicity, a bispecific binding molecule targeting PSMA and CD3 was tested in a chromium (^51Cr) release assay using donor T-cells as effector cells. [See, e.g., US 2014/0161800 A1, which describes multispecific binding molecules that bind to prostate-specific membrane antigen (PSMA) and CD3.]
Cytotoxicity was assessed by a ^51Cr release assay. […]
Plates were incubated for 4 hours, spun at 225×g for 3 minutes, and 25 μL of supernatant was transferred from each well to the corresponding well of a 96-well LUMAPLATE® sample plate (Perkin Elmer). Sample plates were allowed to air dry in a chemical safety hood for 18 hours, and then radioactivity was read on a Topcount scintillation counter using a standard protocol. […]

Assay [4] relates to LNCaP cells. The assay can be described thus: Growth inhibition of LNCaP-GFP cells with primary human T-cells, 4 days, with combination index analysis (Example 6). The class given is cell-based. The note with it: enzalutamide plus TSC249 over a wide range of concentrations, T-cells, 4 days. The method, then: Additional procedures are described in Example 6. Percentage of live cells relative to an untreated control is shown on the y-axis.
Combination indices can indicate additive effects (CI=1), synergism (CI<1), or antagonism (CI>1).
Overall fluorescent signal from GFP enabled the quantitation of living LNCaP target cells in isolation from T-cells. […] TSC249 was added to have final concentrations of 125, 62.5, 31.25, 15.6, 7.8, 3.9, or 1.95 pM, or none. T-cells from several donors were used in replicate experiments, added at a ratio of 45,000 T-cells to 15,000 LNCaP cells per well.
After 4 days culture at 37° C. in 5% CO2, media was aspirated from wells and […] of 0.4% NP-40 was added to each well. Fluorescent signal from GFP in LNCaP cells adherent in wells was detected by a Spectramax plate reader, reading from the bottom of the wells. […]
The combination index theorem developed by Chou and Talalay was used to determine the interaction between the two compounds in their anti-cancer activity (see Chou, Cancer Res. 2010 Jan. 15; 70(2):440-6; Chou, Pharmacol Rev. 2006 September; 58(3):621-81). For each plate, relative fluorescence units (RFU) of all wells were normalized to the RFU of the well containing cells only, i.e., the proportion of living LNCaP cells in each well was expressed in relation to untreated LNCaP cells. […] Mean values were calculated from three replicates. […]

Turning to `CNC(=O)c1ccc(N2C(=S)N(c3ccc(C#N)c(C(F)(F)F)c3)C(=O)C2(C)C)cc1F` [enzalutamide], the “reduction of live cells” value in the assay with LNCaP cells [1] is around 20%. The “MFI from binding of FITC-107-1A4 to the 22Rv1 cells (PSMA expression)” value in the assay on 22Rv1 cells [2] (one week of incubation, vs cells cultured without enzalutamide) was “increase in the MFI”; with 22Rv1 cells [2] (three weeks of incubation), “no additional increases”; in the assay on 22Rv1 cells [2] (two weeks of incubation), “additional increase in the MFI value”. In addition, the “sensitivity of target cells to T-cell mediated lysis” value in the assay on 22Rv1 cells [3] was “increasing the sensitivity”. Also, the “live cell signal when combined with the other drug” value in the assay on LNCaP cells [4] is recorded as “further decrease in live cell signal”.
